How the values were obtained:
[1] = FDA recommended limit; cited from earlier work
[2] = N-Nitroso-varenicline content in individual component (LCMS); type: physicochemical
Description: Liquid chromatography—mass spectrometry (LCMS) method development for NVC. Ultra-pressure liquid chromatography (UPLC) was used to detect NVC in samples. An ACQUITY™ UPLC™ H-Class PLUS System was utilized with the following configuration. The needle was washed with 80:20 methanol:water and the sample temperature was 10° C. The injection volume was 25 μL and a WATERS™ Acquity UPLC BEH Phenyl 1.7 μm 2.1×100 mm column was used having a column temperature of 30° C. Mobile phase A was 0.1% formic acid in water, and mobile phase B was acetonitrile. A 0.5 mL/min flow rate was utilized. Table 1 and Table 2, shown below, illustrate gradient method parameters and LCMS method validation for NVC, respectively.
Screening excipients for varenicline. Excipients were screened to determine which excipients were promoting nitroso impurities. Varenicline and excipients were physically mixed in 1:1 weight ratio and exposed to 40° C./75% RH for 4 weeks (Table 3 and Table 4).

Compound	Acceptable daily intake limit (FDA) [1]	N-Nitroso-varenicline [2]
CN(C)N=O [NDMA, N-nitrosodimethylamine]	96 ng/day	
CC(C)N(N=O)C(C)C [NDIPA, N-nitrosodiisopropylamine]	26.5 ng/day	
CCN(CC)N=O [NDEA, N-nitrosodiethylamine]	26.5 ng/day	
CN(CCCC(=O)O)N=O [NMBA, N-nitroso-N-methyl-4-aminobutanoic acid]	96 ng/day	
CCN(N=O)C(C)C [NIPEA, N-nitrosoisopropylethyl amine]	26.5 ng/day	
7,8,9,10-tetrahydro-6,10-methano-6H-pyrazino(2,3-h)(3)benzazepinex [Varenicline Tartrate, reference compound]		0 ng
O=NN1CC2CC(C1)c1cc3nccnc3cc12 [NVC, N-nitroso-varenicline]	37 ng/day	
Magnesium Stearate		0 ng
O.OC[C@H]1O[C@@H](O[C@H]2[C@H](O)[C@@H](O)C(O)O[C@@H]2CO)[C@H](O)[C@@H](O)[C@H]1O (stereo partly drawn) [Lactose Monohydrate]		0 ng

Source: patent US20230148226A1, “COMPOSITIONS OF STABLE FORMULATIONS OF VARENICLINE SALT OR BASE FORM WITH CONTROL ON NITROSO IMPURITIES” (The Texas A&M University System, priority 2021, published 2023)
